Data published in patent US20260327211A1, “MODULATORS OF A POTASSIUM CHANNEL AND OF TRPV1 CHANNEL AND USES THEREOF” (Bsense Bio Therapeutics Ltd., priority 2023, published 2026).

Legend:
[1] = Metabolite identification (Met-ID), human hepatocytes; format: in vitro ADME
Method: Cell culture and incubation: Cryopreserved hepatocyte cells, from human and rat sources, were purchased from commercial sources or in-house production, and were cultured in Williams' Medium E supplemented with glutamine and HEPES, in a humidified 5% CO2 incubator at 37° C., to a cell density of […]. Then, solutions of test compounds at a concentration of 10 μM, or 7-Ethoxycoumarin, as a positive control, at a concentration of 30 μM, in Eagle's Minimum Essential Medium, Catalog No. 30-2003 (ATCC) supplemented with 20% fetal bovine serum, were introduced and the mixture was incubated for 120 minutes, or other specified time points.
The samples were analyzed for metabolites using an LC-MS method developed on […] and PDA systems. Comparative analyses of mass spectra and ion fragmentation between the parent compound and its metabolites were carried out, and metabolic profiling was determined using the mass spectrometric and/or PDA (UV) response. Hypothetical structures of metabolites and their metabolic pathways were proposed.

MIA-OA rats = assay: Monosodium iodoacetate-induced osteoarthritis (MIA-OA) pain model; format: in vivo, rat
Method: All animal experiments were carried out according to the Guide for the Care and Use of Laboratory Animals (2011 edition) and approved by the Israel National Institutional Animal Care and Use Committee (IACUC). Young adult male SD rats (Envigo RMS, Israel), were used for in vivo efficacy: Spared Nerve Injury (SNI), Distal Tibial Injury (DTI) and Post-operative Pain (POP), 200-220 grams, Chronic Post-Ischemia Pain (CPIP) 275-325 grams, Monosodium iodoacetate-induced osteoarthritis (MIA-OA) 180-220 grams; for in vivo safety: 200-250 grams at study initiation. […] The health status of the animals used in this study was examined upon their arrival. Only animals in good health were acclimatized to laboratory conditions and were used in the studies. All studies were performed following at least five days of animal acclimation. During acclimation and throughout the entire study duration, animals were housed within a limited-access rodent facility and kept in groups with a maximum of 2-3 rats per polypropylene cage. The cages were fitted with solid bottoms and filled with sterile wood shavings as bedding material. Animals were provided ad libitum with a commercial, sterile rodent diet and had free access to drinking water that was supplied to each cage via polyethylene bottles with stainless steel sipper tubes. A feed lot analysis of the diet batch used in the study was included in the archives with the study data. Water was monitored periodically. Plastic cylinders for playing and hiding and wooden balls or sticks were added to the cages for environmental enrichment.
Monosodium iodoacetate-induced osteoarthritis (MIA-OA): The animals were anaesthetized using an Isoflurane+O2 mixture. Then 50 μl of MIA at a concentration of 60 mg/mL was injected into the right knee joint using a 30 G needle. On study days 13 and 14 following MIA injection, the animals' dynamic weight bearing and response to von Frey filaments were measured.
Mechanical Allodynia (Von Frey): The rats were placed in an enclosure and positioned on a metal mesh surface but allowed to move freely. […]

[2] = Bidirectional permeability in Caco-2 cells; format: in vitro ADME, human
Method: Cell culture: Caco-2 cells (ATCC) were seeded onto polycarbonate (PC) membranes in 96-well insert plates. The cells were cultured in media for 21-28 days prior to performing the transport assays.
Validation of monolayer integrity: Once the Caco-2 cells formed a confluent monolayer, their integrity was evaluated using a Lucifer yellow rejection assay. The monolayer integrity was further evaluated by measuring, in duplicate wells, the unidirectional (A→B) permeability of nadolol (a low permeability marker) and metoprolol (a high permeability marker), as well as bidirectional permeability of digoxin (a P-glycoprotein substrate marker).
Assay: The compounds were assayed under bidirectional transport conditions (A→B and B→A) at a concentration of 2.00 μM (with DMSO≤1.0%), using a transport buffer composed of HBSS containing 10.0 mM HEPES, pH 7.40±0.05. The incubation was carried out at 37° C., with 5.0% CO2 and relatively saturated humidity for 2 hours.
The dosing solution was spiked and mixed with the transport buffer and a Stop Solution (containing an internal standard (IS)) to create a T0 sample.
Sample analysis: Following the incubation, all of the samples were analyzed using LC-MS/MS. The concentrations of the test compounds were expressed as peak area ratios of the analytes versus the IS.

[3] = Human hepatocyte stability; format: in vitro ADME; conditions: human hepatocytes; for half-life: read-out: Hepatocytes (human) T1/2

CLint scaled [3] [mL/min/kg] | half-life [3] [min] | Structure (SMILES) | Human Hepatocytes MetID (glutathione conjugation) ([1]; human hepatocytes) | Caco-2 AB [2] | also measured
– | – | O=C(Cc1cc(-n2cc(C(F)(F)F)c3cc(Cl)cc(Cl)c32)ncn1)NCCO [Compound 843] | did not indicate the presence of glutathione conjugation | – | Human Hepatocytes MetID ([1]; human hepatocytes): 0.2%
73.8 | 52.2 | O=C(Cc1cncc(-n2cc(Cl)c3cc(Cl)cc(Cl)c32)c1)N[C@@H]1COC[C@H]1O [Compound 661] | – | 1.78 | Metabolites M1-M7 (glutathione conjugation), share of identified metabolites [1]: 2.09%; Reversal of PWT (MIA-OA rats; 100 mg/kg, 6 hour post-dose): 33%
190 | 20.3 | O=C(Cc1cc(-n2cc(Cl)c3cc(Cl)cc(Cl)c32)ccc1F)NCCO [Compound 627] | – | – | –
– | – | O=C(Cc1nccc(-n2cc(Cl)c3cc(Cl)cc(Cl)c32)n1)NC1COCC1O (stereo not shown) [Compound 760] | did not indicate the presence of glutathione conjugation and None | 7.6 | Pain relief in osteoarthritic pain model (MIA-OA rats; 3-30 mg/kg PO, vs naproxen 30 mg/kg PO): superior in both effect and duration to high dose of naproxen; minimal effective dose (MIA-OA rats; Rattus norvegicus, po, read-out: Effective dose, osteoarthritic pain): 3 to 30 mg/kg
– | – | O=C(Cc1ccnc(-n2cc(Cl)c3cc(Cl)cc(Cl)c32)n1)N[C@@H]1COC[C@H]1O [Compound 820] | did not indicate the presence of glutathione conjugation and None | – | Caco-2 Efflux ratio ([2]; 2.00 μM, 120 min): 2.49; efflux ratio at 2 h, 2 µM ([2]; human, Caco-2, pH 7.4, 2.00 μM): < 3
